Results published in patent US10239843B2 (CANCER RESEARCH TECHNOLOGY LIMITED, priority 2014, dated 2019).
Where two headings read alike, the source gives them in different places.

Legend:
PARG in HeLa cell line = experiment: PARG cell assay (PAR chain immunofluorescence after MMS); format: cell-based; conditions: HeLa cells
Method in brief: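 HeLa cells were dosed with compound for 1 h, then given MMS at 50 μg/mL final for a further hour. Cells were methanol-fixed, permeabilised and stained overnight at 4° C with anti-PAR monoclonal antibody. Retained nuclear PAR chains, detected by indirect immunofluorescence, indicate PARG inhibition.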

Human Full Length PARG = Human Full Length PARG (Homo sapiens (Human), UniProt Q86W56); experiment: PARG enzyme assay (TR-FRET); format: biochemical
Chain of Human Full Length PARG (Q86W56 whole entry): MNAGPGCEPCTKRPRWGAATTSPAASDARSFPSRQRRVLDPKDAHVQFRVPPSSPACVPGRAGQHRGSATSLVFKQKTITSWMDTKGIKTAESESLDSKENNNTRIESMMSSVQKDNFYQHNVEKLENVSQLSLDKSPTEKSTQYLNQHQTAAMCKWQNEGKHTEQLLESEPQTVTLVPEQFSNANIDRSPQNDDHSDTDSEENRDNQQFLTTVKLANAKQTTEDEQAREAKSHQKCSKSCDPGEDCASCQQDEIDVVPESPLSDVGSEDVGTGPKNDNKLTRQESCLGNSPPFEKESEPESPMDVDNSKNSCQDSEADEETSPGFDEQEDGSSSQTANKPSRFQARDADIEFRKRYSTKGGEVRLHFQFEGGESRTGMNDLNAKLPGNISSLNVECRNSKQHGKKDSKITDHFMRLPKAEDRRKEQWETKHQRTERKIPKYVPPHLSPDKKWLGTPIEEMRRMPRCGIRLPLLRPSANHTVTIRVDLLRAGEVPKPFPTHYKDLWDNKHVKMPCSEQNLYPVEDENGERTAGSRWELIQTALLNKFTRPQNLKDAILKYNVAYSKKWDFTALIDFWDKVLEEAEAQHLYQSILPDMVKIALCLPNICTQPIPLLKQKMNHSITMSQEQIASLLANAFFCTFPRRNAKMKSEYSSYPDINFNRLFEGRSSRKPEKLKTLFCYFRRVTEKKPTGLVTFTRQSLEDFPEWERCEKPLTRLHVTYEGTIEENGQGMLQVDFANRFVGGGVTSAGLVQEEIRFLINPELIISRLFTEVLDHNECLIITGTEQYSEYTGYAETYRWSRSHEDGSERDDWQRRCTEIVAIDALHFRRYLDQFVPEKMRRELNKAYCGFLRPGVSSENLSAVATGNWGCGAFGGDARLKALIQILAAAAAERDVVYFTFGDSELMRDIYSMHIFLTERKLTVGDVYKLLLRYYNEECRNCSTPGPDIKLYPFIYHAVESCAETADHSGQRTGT

[1] = Homo sapiens, MMS 50 μg/mL, read-out: PARG Cell IC50 Geomean
[2] = read-out: PARG Biochem IC50 Geomean
[3] = MMS 50 μg/mL, read-out: PARG Cell IC50 Geomean
[4] = Homo sapiens, MMS treatment, read-out: PARG Cell IC50

SMILES	IC50 (PARG in HeLa cell line; [1]) [nM]	IC50 (Human Full Length PARG; [2]) [nM]	IC50 (PARG in HeLa cell line; [4]) [nM]	IC50 (Human Full Length PARG; read-out: PARG Biochem IC50) [nM]	also measured
Cn1cc(Cn2c(=O)c3cc(S(=O)(=O)NC4(C)CC4)c(F)cc3n(C)c2=O)cn1 [Example 385, 7-Fluoro-1-methyl-N-(1-methylcyclopropyl)-3-[(1-methylpyrazol-4-yl)methyl]-2,4-dioxo-quinazoline-6-sulfonamide]	184	341			
Cc1ncc(Cn2c(=O)[nH]c3ccc(S(=O)(=O)NC4(C#N)CC4)cc3c2=O)s1 [Example 386, N-(1-Cyanocyclopropyl)-3-[(2-methylthiazol-5-yl)methyl]-2,4-dioxo-1H-quinazoline-6-sulfonamide]	8380	369			
Cn1cc(Cn2c(=O)[nH]c3cc(F)c(S(=O)(=O)NC4(C#N)CC4)cc3c2=O)cn1 [Example 387, N-(1-Cyanocyclopropyl)-7-fluoro-3-[(1-methylpyrazol-4-yl)methyl]-2,4-dioxo-1H-quinazoline-6-sulfonamide]	1520	452			
Cn1cc(Cn2c(=O)c3cc(S(=O)(=O)NC4(C)CC4)c(F)cc3n(CC3CC3)c2=O)cn1 [Example 388]	31	25			
CCn1c(=O)n(Cc2cnn(C)c2)c(=O)c2cc(S(=O)(=O)NC3(C)CC3)c(F)cc21 [Example 389, 1-Ethyl-7-fluoro-N-(1-methylcyclopropyl)-3-[(1-methylpyrazol-4-yl)methyl]-2,4-dioxo-quinazoline-6-sulfonamide]	79	60			
Cn1cc(Cn2c(=O)c3cc(S(=O)(=O)NC4(C)CC4)c(F)cc3n(Cc3ccc(F)cc3)c2=O)cn1 [Example 390, 7-Fluoro-1-[(4-fluorophenyl)methyl]-N-(1-methylcyclopropyl)-3-[(1-methylpyrazol-4-yl)methyl]-2,4-dioxo-quinazoline-6-sulfonamide]		102			IC50 (PARG in HeLa cell line; [3]): 70 nM
Cc1cc(Cn2c(=O)n(Cc3cnn(C)c3)c(=O)c3cc(S(=O)(=O)NC4(C)CC4)c(F)cc32)on1 [Example 391, 7-Fluoro-N-(1-methylcyclopropyl)-1-[(3-methylisoxazol-5-yl)methyl]-3-[(1-methylpyrazol-4-yl)methyl]-2,4-dioxo-quinazoline-6-sulfonamide]		24			IC50 (PARG in HeLa cell line; [3]): 67 nM
Cc1cc(Cn2c(=O)n(Cc3cnn(C)c3)c(=O)c3cc(S(=O)(=O)NC4(C)CC4)c(F)cc32)n(C)n1 [Example 392, 1-[(2,5-Dimethylpyrazol-3-yl)methyl]-7-fluoro-N-(1-methylcyclopropyl)-3-[(1-methylpyrazol-4-yl)methyl]-2,4-dioxo-quinazoline-6-sulfonamide]	113	47			
Cn1cc(Cn2c(=O)c3cc(S(=O)(=O)NC4(C)CC4)c(F)cc3n(Cc3cnn(C)c3)c2=O)cn1 [Example 393, 7-Fluoro-N-(1-methylcyclopropyl)-1,3-bis[(1-methylpyrazol-4-yl)methyl]-2,4-dioxo-quinazoline-6-sulfonamide]		28			IC50 (PARG in HeLa cell line; [3]): 84 nM
Cn1cc(Cn2c(=O)c3cc(S(=O)(=O)NC4(C)CC4)c(F)cc3n(CC3COC3)c2=O)cn1 [Example 394, 7-Fluoro-N-(1-methylcyclopropyl)-3-[(1-methylpyrazol-4-yl)methyl]-1-(oxetan-3-ylmethyl)-2,4-dioxo-quinazoline-6-sulfonamide]	326	66			
Cn1cc(Cn2c(=O)c3cc(S(=O)(=O)NC4(C)CC4)c(F)cc3n(CC3CCOC3)c2=O)cn1 (stereo not drawn) [Example 395, 7-Fluoro-N-(1-methylcyclopropyl)-3-[(1-methylpyrazol-4-yl)methyl]-2,4-dioxo-1-(tetrahydrofuran-3-ylmethyl)quinazoline-6-sulfonamide]	156	60			
Cc1nc(C)c(Cn2c(=O)n(Cc3cnn(C)c3)c(=O)c3cc(S(=O)(=O)NC4(C)CC4)c(F)cc32)s1 [Example 396, 1-[(2,4-Dimethylthiazol-5-yl)methyl]-7-fluoro-N-(1-methylcyclopropyl)-3-[(1-methylpyrazol-4-yl)methyl]-2,4-dioxo-quinazoline-6-sulfonamide]	17	11			
Cn1cc(Cn2c(OCC3(C)COC3)nc3cc(F)c(S(=O)(=O)NC4(C)CC4)cc3c2=O)cn1 [Example 397, 7-Fluoro-3-((1-methyl-1H-pyrazol-4-yl)methyl)-N-(1-methylcyclopropyl)-2-((3-methyloxetan-3-yl)methoxy)-4-oxo-3,4-dihydroquinazoline-6-sulfonamide]			256	282	
Cn1cc(Cn2c(=O)c3cc(S(=O)(=O)NC4(C)CC4)c(F)cc3n(CC3(C)COC3)c2=O)cn1 [Example 398, 7-Fluoro-3-((1-methyl-1H-pyrazol-4-yl)methyl)-N-(1-methylcyclopropyl)-1-((3-methyloxetan-3-yl)methyl)-2,4-dioxo-1,2,3,4-tetrahydroquinazoline-6-sulfonamide]			257	44	
Cc1ncc(Cn2c(=O)c3cc(S(=O)(=O)NC4(C#N)CC4)ccc3n(CC3CC3)c2=O)s1 [Example 399, N-(1-Cyanocyclopropyl)-1-(cyclopropylmethyl)-3-[(2-methylthiazol-5-yl)methyl]-2,4-dioxo-quinazoline-6-sulfonamide]			87	31	
Cc1cc(Cn2c(=O)n(Cc3cnc(C)s3)c(=O)c3cc(S(=O)(=O)NC4(C#N)CC4)ccc32)on1 [Example 400, N-(1-Cyanocyclopropyl)-1-[(3-methylisoxazol-5-yl)methyl]-3-[(2-methylthiazol-5-yl)methyl]-2,4-dioxo-quinazoline-6-sulfonamide]			320	27	
Cc1ncc(Cn2c(=O)c3cc(S(=O)(=O)NC4(C#N)CC4)ccc3n(Cc3sc(C)nc3C)c2=O)s1 [Example 401, N-(1-Cyanocyclopropyl)-1-[(2,4-dimethylthiazol-5-yl)methyl]-3-[(2-methylthiazol-5-yl)methyl]-2,4-dioxo-quinazoline-6-sulfonamide]			101	8	
Cc1ncc(Cn2c(=O)c3cc(S(=O)(=O)NC4(C#N)CC4)ccc3n(Cc3ccc(F)cc3)c2=O)s1 [Example 402, N-(1-Cyanocyclopropyl)-1-[(4-fluorophenyl)methyl]-3-[(2-methylthiazol-5-yl)methyl]-2,4-dioxo-quinazoline-6-sulfonamide]			167	66	
C#CCn1c(=O)n(Cc2cnc(C)s2)c(=O)c2cc(S(=O)(=O)NC3(C#N)CC3)ccc21 [Example 403, N-(1-Cyanocyclopropyl)-3-[(2-methylthiazol-5-yl)methyl]-2,4-dioxo-1-prop-2-ynyl-quinazoline-6-sulfonamide]				84	IC50 (PARG in HeLa cell line; MMS treatment, read-out: PARG Cell IC50): 265 nM
Cc1cc(Cn2c(=O)n(Cc3cnn(C)c3)c(=O)c3cc(S(=O)(=O)NC4(C#N)CC4)c(F)cc32)on1 [Example 404, N-(1-Cyanocyclopropyl)-7-fluoro-1-[(3-methylisoxazol-5-yl)methyl]-3-[(1-methylpyrazol-4-yl)methyl]-2,4-dioxo-quinazoline-6-sulfonamide]			3860	71	
Cc1cc(Cn2c(=O)c3cc(S(=O)(=O)NC4(C)CC4)ccc3n(CC3CCC(F)(F)CC3)c2=O)on1 [Example 405, 1-[(4,4-Difluorocyclohexyl)methyl]-N-(1-methylcyclopropyl)-3-[(3-methylisoxazol-5-yl)methyl]-2,4-dioxo-quinazoline-6-sulfonamide]			144	248	
